Results: paper PMC4278187 (The Journal of General Physiology, 2015)

Key:
[1] = target: T1, ELIC (Erwinia chrysanthemi ligand-gated ion channel) (Dickeya chrysanthemi, UniProt P0C7B7); assay: whole-cell patch clamp concentration-response in HEK293 cells; assay type: cell-based
T1 sequence (P0C7B7 1-321): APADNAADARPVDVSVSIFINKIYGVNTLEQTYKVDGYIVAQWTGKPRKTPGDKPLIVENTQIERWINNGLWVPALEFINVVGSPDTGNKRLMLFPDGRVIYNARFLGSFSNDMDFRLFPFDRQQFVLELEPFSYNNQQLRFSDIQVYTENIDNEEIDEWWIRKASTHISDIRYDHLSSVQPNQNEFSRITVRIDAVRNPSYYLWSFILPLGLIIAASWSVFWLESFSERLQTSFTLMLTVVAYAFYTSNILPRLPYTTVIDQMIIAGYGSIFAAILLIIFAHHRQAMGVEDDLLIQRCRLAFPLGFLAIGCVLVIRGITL

[2] = target: T1, ELIC (Erwinia chrysanthemi ligand-gated ion channel); assay: macroscopic patch-clamp currents; assay type: cell-based

SMILES | EC50 [1] [µM] | macroscopic patch-clamp currents (data not shown) [2]
CCCN [propylamine] | 500 ± 100 | 
NCCS [cysteamine] |  | in our macroscopic records, the rebound current (see below) was more prominent when responses were elicited by cysteamine
